“And” between values parts separate entries of the source, which are not always exact repeats. Equal entries are not always repeated.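 All cell lines were grown in 96-well plates and treated with compound for 48 hours. At the GI50, growth is halved.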 The source made the active and inactive calls. Rule as the data show it: active = GI50 up to about 1.1 µM and inactive = higher.

Twelve compounds from ChEMBL document CHEMBL1201862, “PubChem BioAssay data set” (2004) can be followed below.

Test in all cases: NCI tumour cell line growth inhibition, 48 h
The test system of experiment [1] is DU-145.
For experiment [2], the system named is HCT-15.
The subject of experiment [3] is OVCAR-4.
The test system of experiment [4] is K562.
For experiment [5], the system named is UO-31.
Experiment [6] deals with KM12.
In experiment [7] the test system is SNB-75.
Experiment [8] concerns Hs-578T.
Experiment [9] relates to MDA-N.
For experiment [10], the system named is CCRF-CEM.
In experiment [11] the test system is HOP-62.
Experiment [12] concerns EKVX.
Experiment [13] relates to IGROV-1.
Experiment [14] concerns HL-60.
For experiment [15], the system named is SF-295.
The subject of experiment [16] is SW-620.
Experiment [17] relates to ACHN.
The test system of experiment [18] is HCT-116.
Experiment [19] concerns NCI-H23.

Turning to `O=C(Cc1ccccc1)NNc1nc(NNC(=O)c2ccncc2)nc(Nc2ccccc2)n1`, the GI50 in experiment [1] is > 10 µM (inactive); in [2] it was > 10 µM; in [3], > 10 µM (inactive); in experiment [4] it was > 10 µM (inactive); in experiment [5] it was 1.12 µM (active); in experiment [6], > 10 µM (inactive). Moreover, the GI50 in [7], in experiment [8], in experiment [9], in experiment [10], in experiment [11] and in [12] was > 10 µM (inactive) in each case. Moreover, the GI50 in [13] and in experiment [14] was > 10 µM (inactive) in each case.

For the compound `COc1ccc2nc(-c3cccc(N(C)C)c3)cc(O)c2c1`, the GI50 in [1] is 0.384 µM (active); in [15] it was 0.246 µM (active); in experiment [2], 0.317 µM; in experiment [3] it was 5.64 µM (inactive); in experiment [4], 0.242 µM (active); in experiment [5], 0.782 µM (active). Besides, the GI50 was 0.337 µM (active) in [6]; 0.299 µM (active) in [7]; 0.264 µM (active) in experiment [16]; 0.188 µM (active) in experiment [8]; 0.0608 µM (active) in [9]; 0.255 µM (active) in experiment [10]. Moreover, the GI50 in experiment [17] is 0.618 µM (active); in experiment [18] it was 0.101 µM (active); in experiment [12], 1.55 µM (inactive); in [13], 0.553 µM (active); in [19] it was 0.111 µM (active); in experiment [14], 0.187 µM (active).

For `O=c1[nH][nH]c(=O)n1Cc1cccc(Cn2c(=O)[nH][nH]c2=O)c1`, the GI50 in experiment [1] was > 100 µM (inactive); in experiment [2], > 100 µM; in experiment [3] it was > 100 µM (inactive); in [4], > 100 µM (inactive); in experiment [5], > 100 µM (inactive); in [6] it was > 100 µM (inactive). Besides, the GI50 in [7], in [16], in [8], in experiment [9], in experiment [10] and in [18] was > 100 µM (inactive) in each case. Besides, the GI50 in experiment [12], in experiment [19] and in experiment [14] was > 100 µM (inactive) in each case.

On to `CC(=O)OC1[C@H](OC(C)=O)C2=C(C)[C@@H](OC(C)=O)C[C@@]2(C(C)(C)O)[C@@H](OC(C)=O)[C@H]2[C@@]1(C)[C@@H](OC(C)=O)CC(OC(C)=O)[C@]21CO1` (some centres undefined), for which the GI50 in experiment [1] is > 100 µM (inactive); in experiment [15], > 100 µM (inactive); in [2] it was > 100 µM; in [3], > 100 µM (inactive); in [4], > 100 µM (inactive); in [5] it was > 100 µM (inactive). For the same compound, the GI50 in experiment [6], in [7], in [16], in experiment [8], in [9] and in experiment [10] was > 100 µM (inactive) each time. The GI50 in experiment [17], in experiment [11], in [18], in experiment [12], in experiment [19] and in experiment [14] was > 100 µM (inactive) throughout.

Take `CC(=O)OCC1OC(SC2=NC(=O)CS2)C(OC(C)=O)C(OC(C)=O)C1OC(C)=O` (centres undefined): the GI50 in [1] was > 100 µM (inactive); in [15] it was > 100 µM (inactive); in experiment [4], 43.5 µM (inactive) and 40 µM (inactive); in experiment [5], > 100 µM (inactive); in [6], > 100 µM (inactive); in [7], > 100 µM (inactive). For the same compound, the GI50 in [16] is > 100 µM (inactive); in experiment [8], > 100 µM (inactive); in experiment [9], > 100 µM (inactive); in [10] it was 31.5 µM (inactive) and 32.3 µM (inactive); in experiment [17] it was > 100 µM (inactive); in [11], > 100 µM (inactive). In addition, the GI50 was > 100 µM (inactive) in [13]; > 100 µM (inactive) in experiment [19]; 26.7 µM (inactive) and 23.4 µM (inactive) in experiment [14].

Consider `CN(C)c1c(C2CC(O)C(CO)O2)c(=O)c1=O` (centres undefined), for which the GI50 was > 100 µM (inactive) in experiment [1]; > 100 µM (inactive) in experiment [15]; > 100 µM in experiment [2]; > 100 µM (inactive) in [3]; > 100 µM (inactive) in experiment [4]; > 100 µM (inactive) in experiment [5]. Besides, the GI50 in experiment [6], in experiment [7], in [16], in [8], in experiment [9] and in [17] was > 100 µM (inactive) throughout. Also, the GI50 in [11], in experiment [18], in experiment [12], in experiment [13] and in experiment [14] was > 100 µM (inactive) each time.

With `C=CCCCCOC1C=CC(OC(C)=O)C(COC(C)=O)O1` (centres undefined), the GI50 in experiment [1] was > 100 µM (inactive); in experiment [15], > 100 µM (inactive); in [2], > 100 µM; in [3] it was > 100 µM (inactive); in experiment [4], > 10 µM (inactive); in experiment [5], > 100 µM (inactive). Further, the GI50 is > 100 µM (inactive) in [6]; > 100 µM (inactive) in experiment [16]; 0.324 µM (active) in experiment [8]; > 100 µM (inactive) in experiment [9]; > 100 µM (inactive) in [10]; > 100 µM (inactive) in [17]. Besides, the GI50 in experiment [11], in experiment [18], in [12], in experiment [13], in experiment [19] and in [14] was > 100 µM (inactive) throughout.

Regarding `COC(CNC(=O)C(C)NC(=O)/C=C/c1ccccc1)OC` (centres undefined), the GI50 in experiment [1] was > 100 µM (inactive); in [15], > 100 µM (inactive); in experiment [2], > 100 µM; in experiment [4], > 100 µM (inactive); in experiment [5], > 100 µM (inactive); in experiment [6], > 100 µM (inactive). Moreover, the GI50 in [7], in experiment [16], in [8], in experiment [9], in experiment [10] and in experiment [17] was > 100 µM (inactive) each time. Moreover, the GI50 in [18], in [12], in [13], in experiment [19] and in experiment [14] was > 100 µM (inactive) in each case.

For the compound `NC1=NN(c2ccccc2)C2(O)c3ccncc3C3=NN(c4ccccc4)C(=O)C132` (centres undefined), the GI50 in [1] was > 100 µM (inactive); in [15], > 100 µM (inactive); in experiment [2], > 100 µM; in experiment [3] it was 51.2 µM (inactive); in [4], > 100 µM (inactive); in experiment [5], > 100 µM (inactive). Besides, the GI50 in [6] was > 100 µM (inactive); in experiment [7], > 100 µM (inactive); in experiment [16], > 100 µM (inactive); in [8] it was > 100 µM (inactive); in experiment [9], > 100 µM (inactive); in experiment [10] it was > 10 µM (inactive). For the same compound, the GI50 in experiment [17], in experiment [18], in experiment [12], in experiment [13], in experiment [19] and in [14] was > 100 µM (inactive) in each case.

For the compound `Oc1ccc(NCc2cc(O)ccc2O)cc1`, the GI50 in [1] is 18.5 µM (inactive); in experiment [15], 20.7 µM (inactive); in experiment [2] it was 15.6 µM; in [3] it was 16.5 µM (inactive); in [4], 19.2 µM (inactive); in experiment [5], 14.1 µM (inactive). Moreover, the GI50 is 21.7 µM (inactive) in experiment [6]; 17.2 µM (inactive) in experiment [7]; 11.5 µM (inactive) in experiment [16]; 40.9 µM (inactive) in experiment [8]; 3.17 µM (inactive) in [9]; 16.1 µM (inactive) in experiment [17]. In addition, the GI50 in experiment [11] was 18.7 µM (inactive); in experiment [18] it was 15.3 µM (inactive); in [12] it was 15.7 µM (inactive); in experiment [13], 16.4 µM (inactive); in experiment [19] it was 18.1 µM (inactive); in [14], 3.03 µM (inactive).

With `O=C(O)c1cccc(S(=O)(=O)NN2C(=O)CSC2c2ccccc2)c1` (centres undefined), the GI50 in [1] is > 100 µM (inactive); in experiment [15] it was > 100 µM (inactive); in experiment [2], > 100 µM; in experiment [4] it was > 100 µM (inactive); in experiment [5] it was > 100 µM (inactive); in experiment [6], > 100 µM (inactive). Further, the GI50 in experiment [7] is > 100 µM (inactive); in experiment [16], > 100 µM (inactive); in experiment [8], > 100 µM (inactive); in experiment [9], 74.6 µM (inactive); in experiment [10], > 100 µM (inactive); in experiment [17], > 100 µM (inactive). For the same compound, the GI50 in experiment [11] is > 100 µM (inactive); in [18], > 100 µM (inactive); in [12], > 100 µM (inactive); in experiment [13], > 100 µM (inactive); in experiment [19], > 100 µM (inactive); in experiment [14] it was 4.4 µM (inactive).

Consider `O=C(NN=C1CCCCC1)Nc1ccccc1Cl`, for which the GI50 in [1] is 86.1 µM (inactive); in experiment [15], 33.3 µM (inactive); in [2] it was 39.6 µM; in experiment [3] it was > 100 µM (inactive); in experiment [4], 37.7 µM (inactive); in experiment [5] it was 61.9 µM (inactive). Moreover, the GI50 is 38.3 µM (inactive) in [6]; 2.82 µM (inactive) in experiment [7]; 43.8 µM (inactive) in experiment [16]; 32 µM (inactive) in experiment [8]; 18.1 µM (inactive) in [9]; 42 µM (inactive) in experiment [10]. The GI50 is > 100 µM (inactive) in experiment [17]; 48.8 µM (inactive) in experiment [18]; 52.8 µM (inactive) in experiment [12]; 26.5 µM (inactive) in experiment [13]; 57.8 µM (inactive) in experiment [19]; 29.6 µM (inactive) in [14].
